Patent publication US6737383B1, “Herbicidal oxadiazolidines” (priority 1999, dated 2004)

Key:
purple nutsedge = test: Test B pre/postemergence purple nutsedge; format: in vivo, Cyperus rotundus
Summary of the method: (§1)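 Test chemicals in a non-phytotoxic solvent mixture with surfactant were sprayed preemergence onto planted seeds and postemergence onto plants 2 to 18 cm tall (1- to 4-leaf stage). After twelve to sixteen days in a greenhouse, injury was visually rated against untreated controls from 0 (no effect) to 10 (complete control).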

smallflower flatsedge = test: Test B flood test smallflower flatsedge; format: in vivo, Cyperus difformis
Summary of the method: (§2)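 Each value is a visual injury score relative to controls, with 10 meaning complete control and 0 no effect. Evaluation took place twelve to sixteen days after the 2-leaf-stage plants were treated and kept in the greenhouse.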

sugar beet = test: Test B pre/postemergence sugar beet; format: in vivo, Beta vulgaris; conditions: for Plant response rating, Sugarbeets: Rate 250 g/ha
Summary of the method: as §1

wheat = test: Test B pre/postemergence wheat; format: in vivo, Triticum aestivum; conditions: for Plant response rating, Wheat: Rate 250 g/ha
Summary of the method: as §1

velvetleaf = test: Test B pre/postemergence velvetleaf; format: in vivo, Abutilon theophrasti; conditions: for Plant response rating, Velvetleaf: Rate 250 g/ha
Summary of the method: as §1

rice = test: Test B flood test rice; format: in vivo, Oryza sativa
Summary of the method: as §2

giant foxtail = test: Test B pre/postemergence giant foxtail; format: in vivo, Setaria faberii
Summary of the method: as §1

soybean = test: Test B pre/postemergence soybean; format: in vivo, Glycine max
Summary of the method: as §1

corn = test: Test B pre/postemergence corn; format: in vivo, Zea mays
Summary of the method: as §1

bedstraw = test: Test B pre/postemergence bedstraw; format: in vivo, Galium aparine
Summary of the method: as §1

pigweed = test: Test B pre/postemergence pigweed; format: in vivo, Amaranthus retroflexus
Summary of the method: as §1

surinam grass = test: Test B pre/postemergence surinam grass; format: in vivo, Brachiaria decumbens
Summary of the method: as §1

rape = test: Test B pre/postemergence rape; format: in vivo, Brassica napus
Summary of the method: as §1

wild oat = test: Test B pre/postemergence wild oat; format: in vivo, Avena fatua; conditions: for Plant response rating, Wild oats: Rate 250 g/ha
Summary of the method: as §1

cocklebur = test: Test B pre/postemergence cocklebur; format: in vivo, Xanthium strumarium
Summary of the method: as §1

duck salad = test: Test B flood test duck salad; format: in vivo, Heteranthera limosa
Summary of the method: as §2

[1] = Postemergence, Rate 125 g/ha, scale of 0 to 10 where 0 is no effect and 10 is complete control
[2] = Postemergence, Rate 250 g/ha, scale 0 to 10, 0 no effect, 10 complete control
[3] = Preemergence, Rate 62 g/ha, scale 0 to 10 (0 no effect, 10 complete control)
[4] = Preemergence, Rate 125 g/ha, scale 0 to 10 (0 no effect, 10 complete control)
[5] = Preemergence, Rate 250 g/ha, scale of 0 to 10 where 0 is no effect and 10 is complete control
[6] = Preemergence, Rate 500 g/ha, scale 0 to 10 (0 no effect, 10 complete control)
[7] = Rate 62 g/ha, Postemergence, scale of 0 to 10 where 0 is no effect and 10 is complete control
[8] = Postemergence (flood test species), Rate 125 g/ha, scale of 0 to 10 where 0 is no effect and 10 is complete control
[9] = Rate 62 g/ha, Postemergence section, flood test species, scale of 0 to 10 where 0 is no effect and 10 is complete control
[10] = Rate 250 g/ha, Postemergence (flood test), scale 0 to 10, 0 is no effect, 10 is complete control
[11] = Rate 500 g/ha, listed under Postemergence (flood test species), scale 0 to 10, 0 no effect, 10 complete control
[12] = Preemergence, Rate 125 g/ha, 0 is no effect, 10 is complete control
[13] = Preemergence, scale of 0 to 10 where 0 is no effect and 10 is complete control
[14] = Postemergence, scale 0 to 10, 0 is no effect, 10 is complete control
[15] = Rate 500 g/ha, Postemergence, scale 0 to 10, 0 no effect, 10 complete control
[16] = Rate 250 g/ha, Postemergence, scale 0 to 10, 0 is no effect, 10 is complete control

`Cc1nn(C)c(C)c1-n1c(=O)on(C(=O)N(c2ccccc2)C(C)C)c1=O` [Compound 120] was tested, and the “Nutsedge plant response rating” value (purple nutsedge; [1]) was 0, the “Nutsedge plant response rating” value (purple nutsedge; [2]) was 0 and the “Nutsedge plant response rating” value (purple nutsedge; [3]) was 0. The “Plant response rating, Nutsedge” value (purple nutsedge; [4]) was 0, the “Plant response rating, Nutsedge” value (purple nutsedge; [5]) was 0 and the “Nutsedge plant response rating” value (purple nutsedge; [6]) was 0. The “Nutsedge plant response rating” value (purple nutsedge; [7]) was 0, the “S. Flatsedge plant response rating” value (smallflower flatsedge; [8]) was 0 and the “S. Flatsedge plant response rating” value (smallflower flatsedge; [9]) was 0. For the same compound, the “Plant response rating, S. Flatsedge” value (smallflower flatsedge; [10]) was 0, the “S. Flatsedge plant response rating” value (smallflower flatsedge; [11]) was 0 and the “Sugarbeets plant response rating” value (sugar beet; [1]) was 0. The “Sugarbeets plant response rating” value (sugar beet; [3]) was 0, the “Sugarbeets plant response rating (0 to 10 scale)” value (sugar beet; [12]) was 2 and the “Plant response rating, Sugarbeets” value (sugar beet; [13]) was 4. For the same compound, the “Sugarbeets plant response rating” value (sugar beet; [6]) was 7, the “Sugarbeets plant response rating” value (sugar beet; [7]) was 0 and the “Plant response rating, Sugarbeets” value (sugar beet; [14]) was 0. For the same compound, the “Sugarbeets plant response rating” value (sugar beet; [15]) was 0, the “Wheat plant response rating” value (wheat; [1]) was 0 and the “Wheat plant response rating” value (wheat; [3]) was 0. The “Wheat plant response rating (0 to 10 scale)” value (wheat; [12]) was 0, the “Plant response rating, Wheat” value (wheat; [13]) was 2 and the “Wheat plant response rating” value (wheat; [6]) was 6. The “Wheat plant response rating” value (wheat; [7]) was 0, the “Plant response rating, Wheat” value (wheat; [14]) was 0 and the “Wheat plant response rating” value (wheat; [15]) was 4. For the same compound, the “Velvetleaf plant response rating” value (velvetleaf; [1]) was 0, the “Velvetleaf plant response rating” value (velvetleaf; [3]) was 0 and the “Velvetleaf plant response rating (0 to 10 scale)” value (velvetleaf; [12]) was 0. For the same compound, the “Plant response rating, Velvetleaf” value (velvetleaf; [13]) was 0, the “Velvetleaf plant response rating” value (velvetleaf; [6]) was 3 and the “Velvetleaf plant response rating” value (velvetleaf; [7]) was 0. For the same compound, the “Plant response rating, Velvetleaf” value (velvetleaf; [14]) was 2, the “Velvetleaf plant response rating” value (velvetleaf; [15]) was 6 and the “Rice plant response rating” value (rice; [8]) was 0. For the same compound, the “Rice plant response rating” value (rice; [9]) was 0, the “Plant response rating, Rice” value (rice; [10]) was 2 and the “Rice plant response rating” value (rice; [11]) was 3. For the same compound, the “Giant foxtail plant response rating” value (giant foxtail; [1]) was 6, the “Giant foxtail plant response rating” value (giant foxtail; [2]) was 8 and the “Giant foxtail plant response rating” value (giant foxtail; [3]) was 8. The “Plant response rating, Giant foxtail” value (giant foxtail; [4]) was 9, the “Plant response rating, Giant foxtail” value (giant foxtail; [5]) was 9 and the “Giant foxtail plant response rating” value (giant foxtail; [6]) was 10. For the same compound, the “Giant foxtail plant response rating” value (giant foxtail; [7]) was 3, the “Giant foxtail plant response rating” value (giant foxtail; [15]) was 8 and the “Soybean plant response rating” value (soybean; [1]) was 3. For the same compound, the “Soybean plant response rating” value (soybean; [3]) was 0, the “Plant response rating, Soybean” value (soybean; [4]) was 0 and the “Plant response rating, Soybean” value (soybean; [5]) was 0. For the same compound, the “Soybean plant response rating” value (soybean; [6]) was 0, the “Soybean plant response rating” value (soybean; [7]) was 2 and the “Plant response rating, Soybean” value (soybean; [16]) was 4. The “Soybean plant response rating” value (soybean; [15]) was 6, the “Corn plant response rating” value (corn; [1]) was 0 and the “Corn plant response rating” value (corn; [2]) was 2. For the same compound, the “Corn plant response rating” value (corn; [3]) was 0, the “Plant response rating, Corn” value (corn; [4]) was 0 and the “Plant response rating, Corn” value (corn; [5]) was 0. For the same compound, the “Corn plant response rating” value (corn; [6]) was 0, the “Corn plant response rating” value (corn; [7]) was 0 and the “Corn plant response rating” value (corn; [15]) was 4. The “Bedstraw plant response rating” value (bedstraw; [3]) was 0, the “Plant response rating, Bedstraw” value (bedstraw; [4]) was 0 and the “Plant response rating, Bedstraw” value (bedstraw; [5]) was 0. The “Bedstraw plant response rating” value (bedstraw; [6]) was 0, the “Bedstraw plant response rating” value (bedstraw; [15]) was 2 and the “Redroot pigweed plant response rating” value (pigweed; [1]) was 0. For the same compound, the “Redroot pigweed plant response rating” value (pigweed; [3]) was 7, the “Plant response rating, Redroot pigweed” value (pigweed; [4]) was 8 and the “Plant response rating, Redroot pigweed” value (pigweed; [5]) was 8. For the same compound, the “Redroot pigweed plant response rating” value (pigweed; [6]) was 8, the “Redroot pigweed plant response rating” value (pigweed; [7]) was 0 and the “Plant response rating, Redroot pigweed” value (pigweed; [16]) was 0. For the same compound, the “Redroot pigweed plant response rating” value (pigweed; [15]) was 3, the “B. signalgrass plant response rating” value (surinam grass; Postemergence, Rate 62 g/ha, scale 0 to 10, 0 is no effect, 10 is complete control) was 0 and the “B. signalgrass plant response rating” value (surinam grass; [2]) was 7. The “B. signalgrass plant response rating” value (surinam grass; [3]) was 0, the “Plant response rating, B. signalgrass” value (surinam grass; [4]) was 3 and the “Plant response rating, B. signalgrass” value (surinam grass; [5]) was 6. For the same compound, the “B. signalgrass plant response rating” value (surinam grass; [6]) was 8, the “B. signalgrass plant response rating” value (surinam grass; Rate 125 g/ha, Postemergence, scale 0 to 10, 0 no effect, 10 complete control) was 4 and the “B. signalgrass plant response rating” value (surinam grass; Rate 500 g/ha, Postemergence, scale of 0 to 10 where 0 is no effect and 10 is complete control) was 8. The “Rape plant response rating” value (rape; [1]) was 0, the “Rape plant response rating” value (rape; [2]) was 0 and the “Rape plant response rating” value (rape; [3]) was 0. For the same compound, the “Plant response rating, Rape” value (rape; [4]) was 0, the “Plant response rating, Rape” value (rape; [5]) was 0 and the “Rape plant response rating” value (rape; [6]) was 3. For the same compound, the “Rape plant response rating” value (rape; [7]) was 0, the “Rape plant response rating” value (rape; [15]) was 0 and the “Wild oats plant response rating” value (wild oat; [1]) was 0. For the same compound, the “Wild oats plant response rating” value (wild oat; [3]) was 0, the “Wild oats plant response rating (0 to 10 scale)” value (wild oat; [12]) was 2 and the “Plant response rating, Wild oats” value (wild oat; [13]) was 6. For the same compound, the “Wild oats plant response rating” value (wild oat; [6]) was 8, the “Wild oats plant response rating” value (wild oat; [7]) was 0 and the “Plant response rating, Wild oats” value (wild oat; [14]) was 0. The “Wild oats plant response rating” value (wild oat; [15]) was 2, the “Cocklebur plant response rating” value (cocklebur; [1]) was 1 and the “Cocklebur plant response rating” value (cocklebur; [2]) was 3. The “Cocklebur plant response rating” value (cocklebur; [3]) was 0, the “Plant response rating, Cocklebur” value (cocklebur; [4]) was 0 and the “Plant response rating, Cocklebur” value (cocklebur; [5]) was 0. The “Cocklebur plant response rating” value (cocklebur; [6]) was 0, the “Cocklebur plant response rating” value (cocklebur; [7]) was 1 and the “Cocklebur plant response rating” value (cocklebur; [15]) was 4. For the same compound, the “Ducksalad plant response rating” value (duck salad; [8]) was 0, the “Ducksalad plant response rating” value (duck salad; [9]) was 0 and the “Ducksalad plant response rating” value (duck salad; [11]) was 0. The “Ducksalad plant response rating” value (duck salad; flood test, listed under Postemergence, Rate 250 g/ha, scale 0 to 10, 0 no effect, 10 complete control) was 0.
